Common to all, as to format: functional, Homo sapiens
Holding throughout (parameters): dose or concentration left out as unconfirmed

Test [1] relates to Colon cancer organoid. Kind of test: Identification of compartment-specific drug sensitivities in O06 CRC organoid-stroma F06 CAF co-cultures. Organoid is transduced with Lucferase2-P2A-EGFP lentivirus, fibroblast with Renilla-dsRed lentivirus. Dual-Glo Luciferase assay is used to report viability data.
The subject of test [2] is Colon cancer organoid. Nature of the test: Identification of compartment-specific drug sensitivities in O14 CRC organoid-stroma F14 CAF co-cultures. Organoid is transduced with Lucferase2-P2A-EGFP lentivirus, fibroblast with Renilla-dsRed lentivirus. Dual-Glo Luciferase assay is used to report viability data.
Test [3] deals with Colon cancer organoid. Kind of test: Identification of compartment-specific drug sensitivities in O20 CRC organoid-stroma F20 CAF co-cultures. Organoid is transduced with Lucferase2-P2A-EGFP lentivirus, fibroblast with Renilla-dsRed lentivirus. Dual-Glo Luciferase assay is used to report viability data.
The mark [4] stands for this setting: Transduced with Lucferase2-P2A-EGFP lentivirus.
[5] abbreviates: Transduced with Renilla-dsRed lentivirus.

On to `CCS(=O)(=O)Nc1ccc(Oc2ccc(F)cc2F)c(-c2cn(C)c(=O)c3[nH]ccc23)c1` [MIVEBRESIB], for which the “Cell Viability” value amounted to 13.1828% in the test with Colon cancer organoid [1] (setting [4]); 272.686% with Colon cancer organoid [1] (setting [5]); 15.6468% in the test on Colon cancer organoid [2] (setting [4]); 169.821% with Colon cancer organoid [2] (setting [5]); 5.758% with Colon cancer organoid [3] (setting [4]); 64.2458% with Colon cancer organoid [3] (setting [5]).

With `C[C@H](NC(=O)c1cnc2n1[C@](C)(Cc1ccc(C#N)cc1)C(=O)N2c1cc(Cl)c(F)c(Cl)c1)C(=O)NC1(c2ccccn2)CC1` [BI 1950], the “Cell Viability” value was 112.036% in the test on Colon cancer organoid [1] (setting [4]); 408.477% with Colon cancer organoid [1] (setting [5]); 98.1816% with Colon cancer organoid [2] (setting [4]); 100.374% with Colon cancer organoid [2] (setting [5]); 121.807% in the test with Colon cancer organoid [3] (setting [4]); 97.0159% with Colon cancer organoid [3] (setting [5]).

`CN(C)[C@H]1CCN(c2cc(-c3ccccc3)nc3ccnn23)C1` [(S)-ZINC-3573]: the “Cell Viability” value in the test with Colon cancer organoid [1] (setting [4]) worked out at 87.7689%; in the test on Colon cancer organoid [1] (setting [5]) it was 121.05%; in the test with Colon cancer organoid [2] (setting [4]) it was 98.973%; in the test on Colon cancer organoid [2] (setting [5]), 77.8832%; in the test with Colon cancer organoid [3] (setting [4]) it was 93.0253%; with Colon cancer organoid [3] (setting [5]), 112.128%.

Regarding `COc1cc(C)c(Sc2cnc(NC(=O)c3ccc(CNC(C)C(C)(C)C)cc3)s2)cc1C(=O)N1CCN(C(C)=O)CC1` (stereo not drawn), the “Cell Viability” value in the test with Colon cancer organoid [1] (setting [4]) is reported as 97.8632%; in the test with Colon cancer organoid [1] (setting [5]), 73.4932%; in the test with Colon cancer organoid [2] (setting [4]), 52.0168%; in the test with Colon cancer organoid [2] (setting [5]), 58.5352%; in the test on Colon cancer organoid [3] (setting [4]) it was 91.6907%; in the test on Colon cancer organoid [3] (setting [5]), 97.5626%.

`N#CC1(c2ccccn2)CCN(Cc2cc(C(=O)O)c(=O)n3ccccc23)CC1` [MSD-M1PAM]: the “Cell Viability” value in the test with Colon cancer organoid [1] (setting [4]) was 12.088%; with Colon cancer organoid [1] (setting [5]) it was 188.309%; in the test with Colon cancer organoid [2] (setting [4]) it was 84.139%; in the test on Colon cancer organoid [2] (setting [5]) it was 110.281%; in the test on Colon cancer organoid [3] (setting [4]) it was 53.4383%; in the test with Colon cancer organoid [3] (setting [5]), 117.537%.

On to `O=C(O)CNC(=O)c1c(O)c2ccccc2n(Cc2ccccc2)c1=O`, for which the “Cell Viability” value in the test on Colon cancer organoid [1] (setting [4]) turned out to be 145.736%; with Colon cancer organoid [1] (setting [5]) it was 124.036%; in the test with Colon cancer organoid [2] (setting [4]) it was 107.659%; with Colon cancer organoid [2] (setting [5]) it was 95.196%; with Colon cancer organoid [3] (setting [4]) it was 96.6263%; in the test with Colon cancer organoid [3] (setting [5]), 149.859%.

As to `CCc1cc(Nc2nccc(-c3c(-c4ccc(OC)c(C(=O)Nc5c(F)cccc5F)c4)nc4ccccn34)n2)c(OC)cc1N1CCC(N2CCN(S(C)(=O)=O)CC2)CC1`, the “Cell Viability” value in the test on Colon cancer organoid [1] (setting [4]) is given as 86.7992%; in the test with Colon cancer organoid [1] (setting [5]), 78.7013%; with Colon cancer organoid [2] (setting [4]), 103.898%; in the test on Colon cancer organoid [2] (setting [5]), 108.534%; in the test on Colon cancer organoid [3] (setting [4]), 117.027%; in the test on Colon cancer organoid [3] (setting [5]), 82.2783%.

Regarding `CNC(=O)c1ccccc1Nc1cc(Nc2ccc(N3CCOCC3)cc2OC)ncc1C(F)(F)F` [VS-4718], the “Cell Viability” value with Colon cancer organoid [1] (setting [4]) was 52.8737%; with Colon cancer organoid [1] (setting [5]) it was 57.2971%; with Colon cancer organoid [2] (setting [4]), 18.7172%; with Colon cancer organoid [2] (setting [5]) it was 41.7282%; in the test with Colon cancer organoid [3] (setting [4]), 13.9942%; in the test on Colon cancer organoid [3] (setting [5]) it was 72.4438%.

Regarding `COCC(=O)NC/C=C/c1ccc2ncnc(Nc3ccc(Oc4ccc(C)nc4)c(C)c3)c2c1` [CP-724714], the “Cell Viability” value is given as 64.178% in the test with Colon cancer organoid [1] (setting [4]); 58.1065% with Colon cancer organoid [1] (setting [5]); 105.334% in the test on Colon cancer organoid [2] (setting [4]); 107.19% in the test with Colon cancer organoid [2] (setting [5]); 97.2693% in the test on Colon cancer organoid [3] (setting [4]); 94.0282% in the test on Colon cancer organoid [3] (setting [5]).

Regarding `Cn1nc(C(F)(F)F)cc1-c1cnc(N2CCc3cc(S(=O)(=O)Nc4c(F)cc(Cl)cc4F)cc(N4CCCC4=O)c32)nc1` [TP-020], the “Cell Viability” value in the test on Colon cancer organoid [1] (setting [4]) came to 69.3758%; with Colon cancer organoid [1] (setting [5]), 110.898%; in the test on Colon cancer organoid [2] (setting [4]) it was 113.877%; in the test on Colon cancer organoid [2] (setting [5]), 116.294%; in the test on Colon cancer organoid [3] (setting [4]), 86.7802%; in the test on Colon cancer organoid [3] (setting [5]), 95.2287%.

Regarding `O=C(O)c1ccc(-c2coc3ncc(-c4ccccc4)cc23)cc1Cl`, the “Cell Viability” value with Colon cancer organoid [1] (setting [4]) was determined as 84.9927%; in the test on Colon cancer organoid [1] (setting [5]) it was 102.883%; in the test with Colon cancer organoid [2] (setting [4]), 182.141%; in the test with Colon cancer organoid [2] (setting [5]) it was 68.2046%; with Colon cancer organoid [3] (setting [4]), 189.357%; in the test with Colon cancer organoid [3] (setting [5]), 126.188%.

Turning to `CC(=O)N1CCC(c2ccc(C(=O)NC(=N)N)cc2C(F)(F)F)CC1` [BI 9627], the “Cell Viability” value is recorded as 118.657% with Colon cancer organoid [1] (setting [4]); 157.583% with Colon cancer organoid [1] (setting [5]); 100.11% with Colon cancer organoid [2] (setting [4]); 107.329% in the test on Colon cancer organoid [2] (setting [5]); 96.0735% with Colon cancer organoid [3] (setting [4]); 101.417% with Colon cancer organoid [3] (setting [5]).

As to `CCOc1cc2ncc(C#N)c(Nc3ccc(OCc4cccc(F)c4)c(Cl)c3)c2cc1NC(=O)/C=C/CN(C)C` [HKI-357], the “Cell Viability” value is 16.8896% with Colon cancer organoid [1] (setting [4]); 39.6819% in the test on Colon cancer organoid [1] (setting [5]); 38.7389% in the test with Colon cancer organoid [2] (setting [4]); 28.7857% in the test with Colon cancer organoid [2] (setting [5]); 50.6947% in the test with Colon cancer organoid [3] (setting [4]); 47.1207% in the test with Colon cancer organoid [3] (setting [5]).

For `CNc1nc(-c2ccc3c(N)n[nH]c3c2)cc(N2C[C@@H](C(=O)NC3CCCCC3)CC[C@H]2C)n1`, the “Cell Viability” value in the test on Colon cancer organoid [1] (setting [4]) is 59.8926%; in the test on Colon cancer organoid [1] (setting [5]), 53.4401%; in the test on Colon cancer organoid [2] (setting [4]) it was 65.7783%; with Colon cancer organoid [2] (setting [5]) it was 53.252%; with Colon cancer organoid [3] (setting [4]), 52.0118%; in the test with Colon cancer organoid [3] (setting [5]) it was 121.574%.

With `CC[C@@H]1C(=O)N(C)c2cnc(Nc3ccc(C(=O)NC4CCN(C)CC4)cc3OC)nc2N1C1CCCC1` [BI-2536], the “Cell Viability” value is recorded as 3.341% in the test with Colon cancer organoid [1] (setting [4]); 324.743% with Colon cancer organoid [1] (setting [5]); 2.9466% with Colon cancer organoid [2] (setting [4]); 167.188% in the test on Colon cancer organoid [2] (setting [5]); 3.721% with Colon cancer organoid [3] (setting [4]); 168.723% with Colon cancer organoid [3] (setting [5]).

Turning to `C=CC(=O)N1CCC([C@@H]2CCNc3c(C(N)=O)c(-c4ccc(Oc5ccccc5)cc4)nn32)CC1` [ZANUBRUTINIB], the “Cell Viability” value with Colon cancer organoid [1] (setting [4]) is 36.1998%; with Colon cancer organoid [1] (setting [5]), 136.235%; in the test on Colon cancer organoid [2] (setting [4]), 25.5759%; with Colon cancer organoid [2] (setting [5]) it was 117.13%; with Colon cancer organoid [3] (setting [4]) it was 8.4337%; in the test on Colon cancer organoid [3] (setting [5]), 202.782%.

For `CNC(=O)Nc1ccc(-c2nc(N3CC4CCC(C3)O4)c3cnn(C4CCC5(CC4)OCCO5)c3n2)cc1`, the “Cell Viability” value in the test on Colon cancer organoid [1] (setting [4]) worked out at 4.885%; in the test with Colon cancer organoid [1] (setting [5]), 48.532%; with Colon cancer organoid [2] (setting [4]) it was 29.4838%; with Colon cancer organoid [2] (setting [5]), 39.9364%; with Colon cancer organoid [3] (setting [4]), 5.83%; in the test with Colon cancer organoid [3] (setting [5]), 97.6391%.

With `COc1cc2ncn(-c3cc(OCc4ccccc4C(F)(F)F)c(C(N)=O)s3)c2cc1OC` [GW843682X], the “Cell Viability” value in the test with Colon cancer organoid [1] (setting [4]) is listed as 4.781%; with Colon cancer organoid [1] (setting [5]), 182.458%; in the test with Colon cancer organoid [2] (setting [4]), 3.29%; in the test on Colon cancer organoid [2] (setting [5]) it was 110.017%; in the test with Colon cancer organoid [3] (setting [4]) it was 89.1479%; in the test with Colon cancer organoid [3] (setting [5]) it was 152.214%.

(Values after ChEMBL document CHEMBL5608141, “Identification of compartment-specific drug sensitivities in CRC organoid-stroma co-cultures” (2024).)
